Results as given in patent US20180045715A1, “STRUCTURE AND FUNCTION OF THE SALICYCLIC ACID BINDING SITES ON HUMAN HMGB1 AND METHODS OF USE THEREOF FOR THE RATIONAL DESIGN OF BOTH SALICYCLIC ACID DERIVATIVES AND OTHER AGENTS THAT ALTER ANIMAL AND PLANT HMGBS ACTIVITIES” (Boyce Thompson Institute for Plant Research, Inc., priority 2015, published 2018).
Numbering of substitutions follows the chain as printed. “And” between values parts separate entries of the source, which are not always exact repeats. Equal entries are not always repeated. Where two headings read alike, the source gives them in different places.

Tests used:
[1] = biological target: T1, full-length (FL) R24A/K28A HMGB1 (Homo sapiens, UniProt P09429, K28A/R24A); experiment: 15N-1H HSQC NMR binding to R24A/K28A HMGB1; settings: ~0.1 mM protein; 15 mM SA, 3 mM ac3AESA or 3 mM amorfrutin B1
T1 construct: (i) full length: residues 2-215; made in house
T1 sequence (P09429 2-215 R24A/K28A): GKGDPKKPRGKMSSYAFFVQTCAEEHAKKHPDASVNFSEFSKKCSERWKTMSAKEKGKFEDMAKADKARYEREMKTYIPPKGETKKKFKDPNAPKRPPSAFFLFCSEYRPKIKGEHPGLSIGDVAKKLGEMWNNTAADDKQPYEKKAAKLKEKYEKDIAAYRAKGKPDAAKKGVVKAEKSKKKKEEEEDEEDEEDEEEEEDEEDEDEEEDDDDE
Protocol: (§1) […] Samples were analyzed with and without SA or other candidate inhibitors at 25° C. Chemical shift perturbation studies were carried out using either a Bruker Avance 800 MHz Avance NMR system with 4-mm NMR tubes, or using a Bruker Avance 600 MHz NMR spectrometer equipped with a 1.7 mm micro cryoprobe. 1024 or 2048 complex points were acquired for each of 80 to 200 increments in the ^15N dimension with a recycle delay of 1 s. Each spectrum was typically acquired for 2-8 hrs. Chemical shift assignments were determined using a uniformly ^13C,^15N-enriched HMGB1-ΔC construct at 25° C. via traditional triple-resonance NMR experiments (Biamonti et al., 1994; Moseley et al., 2001) recorded on a Bruker 800 MHz NMR spectrometer equipped with a 5 mm cryoprobe. Disulfide oxidation studies were carried out using the ^15N-^1H SOFAST-HMQC NMR experiment (Schanda & Brutscher, 2005; Schanda et al., 2005; Zandarashvili et al., 2013).
An alternative explanation is that SA, at low concentrations, affects another factor in vivo, which results indirectly in suppression of HMGB1^RE-induced chemotaxis. […] Therefore, these residues were mutated to Ala to form the double mutant Arg24Ala/Lys28Ala (R24A/K28A).

K12A/K68A HMGB1^RE = biological target: T2, K12A/K68A HMGB1^RE (Homo sapiens, UniProt P09429, K12A/K68A); experiment: Chemotaxis assay with mutant K12A/K68A HMGB1^RE; type: cell-based; settings: 1 nM mutant HMGB1^RE, 30 μM SA
T2 construct: (i) full length: residues 2-215; made in house
T2 sequence (P09429 2-215 K12A/K68A): T1 sequence (P09429 2-215 R24A/K28A) with K11A, A23R, A27K, K67A
Protocol: Cell migration was assayed using Boyden chambers (Venereau et al., 2012). The downside of PVP-free polycarbonate filters (8 μm pores; Millipore) was coated with 50 μg/ml fibronectin (Sigma). Serum-free DMEM (negative control), DMEM containing 0.1 nM fMLP (positive control; Sigma), or DMEM containing 1 nM HMGB1^RE or HMGB1^SS were placed in the lower chamber, together with different concentrations of SA (Sigma). The mouse 3T3 fibroblast cells were cultured in DMEM media supplemented with 10% CS until 90% confluence, washed twice with PBS to eliminate any floating cells, and harvested with trypsin. 50,000 cells in 200 μL were added to the upper chamber, and cells were left to migrate for 3 h at 37° C. Non-migrating cells were removed with a cotton swab, and migrated cells were fixed with ethanol and stained with Giemsa.
Two additional double mutants in Box A were constructed—H27A/R48A and K12A/K68A. […] Since mutant H27A/R48A no longer had chemo-attractant activity, the effect of SA on this activity could not be assessed (FIG. 12).

R50A/K54A mutant AtHMGB3 [2] = biological target: T3, R50A/K54A mutant AtHMGB3 (Arabidopsis thaliana, UniProt P93047, K54A/R50A); experiment: Callose deposition with mutant R50A/K54A AtHMGB3; settings: in vivo
T3 construct: providing a full length Arabidopsis thaliana HMGB1 or HMGB3 (AtHMGB1 or AtHMGB3) protein; made in house
T3 sequence (P93047 whole entry R50A/K54A): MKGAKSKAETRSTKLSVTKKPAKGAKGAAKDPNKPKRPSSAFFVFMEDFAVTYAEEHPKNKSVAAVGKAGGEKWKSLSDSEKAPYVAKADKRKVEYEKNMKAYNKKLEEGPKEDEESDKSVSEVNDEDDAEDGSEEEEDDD
Protocol: Arabidopsis leaves were collected 15 h after infiltration with 100 nM AtHMGB3 or 100 nM Pep1, and then immediately immersed in alcoholic lactophenol (phenol:glycerol:lactic acid:water:ethanol=1:1:1:1:8) to destain the chlorophyll. To remove the background fluorescence, destained leaves were treated with toluidine blue O solution (0.05% toluidine blue O, 0.1 M sodium acetate, pH 4.4) for 30 min, and then rinsed twice with 150 mM K2HPO4 (pH 9.5). Callose was stained with aniline blue solution (0.02% aniline blue, 150 mM K2HPO4, pH 9.5) for 30 min in the absence of light. The aniline blue-stained leaves were mounted with 25% glycerol and analyzed using a Leica DM5500 epifluorescence microscope. The number of callose loci was quantified using an ImageJ (NIH).
(§2) Thus, these residues (R50 and K54) were mutated to Ala, and the resulting mutant AtHMGB3 tested for its ability to activate MPK3/6 and induce callose deposition in the absence or presence of SA. The R50A/K54A mutant AtHMGB3 retained its ability to activate MPK3/6 and induce callose deposition, but inhibition of these activities by SA was lost (FIG. 7H,I and FIG. 8).

R50A/K54A mutant AtHMGB3 [3] = biological target: T3, R50A/K54A mutant AtHMGB3; experiment: MAPK activation assay with mutant R50A/K54A AtHMGB3; settings: in vivo
Protocol: To detect the phosphorylation of Arabidopsis MAPKs (MPK3/4/6), 3 to 4 week-old soil grown Arabidopsis leaves were infiltrated with 1 μM AtHMGB3 or 1 μM Pep1 peptide ([…]; synthesized by GenScript USA Inc.). […] Proteins were extracted using lacus buffer (25 mM Tris-HCl, pH 7.5, 15 mM MgCl2, 15 mM EGTA, 75 mM NaCl, 1 mM DTT, 0.1% NP-40, 5 mM p-nitrophenylphosphate, 60 mM β-glycerophosphate, 0.1 mM […], 1 mM NaF, 1 mM PMSF, 5 μg/ml leupeptin, 5 μg/ml aprotinin), and then centrifuged at 15,000 g for 10 min at 4 ° C. to remove cell debris.
as §2

HMGB1 Box A domain = biological target: T4, HMGB1 Box A domain (Homo sapiens, UniProt P09429); experiment: 15N-1H HSQC titration for Kd measurement; type: binding
T4 construct: (iii) Box A: residues 10-80; hexaHis (TEV-cleavable) (N, cleaved yes); made in house
T4 sequence (P09429 10-80): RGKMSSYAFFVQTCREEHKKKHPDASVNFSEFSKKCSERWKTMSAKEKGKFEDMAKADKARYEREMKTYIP
Protocol: as §1
NMR experiments were used to discover that ac3AESA binds to HMGB1 Box A domain of HMGB1 more tightly than SA itself. […] Chemical shift perturbations (CSPs) are defined as Δδppm=[(δHN*6.5)^2+δN^2]^1/2.

## O=C(O)c1ccccc1O [SA, salicylic acid]
[1]
  binding to R24A/K28A HMGB1 (CSPs in HSQC): does not bind
K12A/K68A HMGB1^RE
  inhibition by SA of K12A/K68A HMGB1^RE chemo-attractant activity: retained
R50A/K54A mutant AtHMGB3 [2]
  inhibition by SA of callose deposition induced by R50A/K54A AtHMGB3: lost
R50A/K54A mutant AtHMGB3 [3]
  inhibition by SA of MPK3/6 activation by R50A/K54A AtHMGB3: lost
HMGB1 Box A domain; 0.2 mM Box A, pH 7.5, read-out: Kd of binding to HMGB1 Box A (HSQC titration, 1:1 fit)
  Kd: ~90 mM and 90 mM
HMGB1 Box A domain; Box A or full-length HMGB1, read-out: Kd from titrating SA with either Box A or full-length HMGB1
  Kd: ~10 mM
HMGB1 Box A domain; read-out: affinity (Kd) for Box A of HMGB1 as stated in definitions
  Kd: ~10 mM
